ChEMBL document CHEMBL4043234, “Anticancer efficacy of p-dodecylaminophenol against high-risk and refractory neuroblastoma cells in vitro and in vivo” (Bioorg Med Chem Lett, 2017)
Active and inactive are the calls of the source. The rule behind the calls is not given here.

How the values were obtained:
SK-N-AS [1] = assay: Induction of apoptosis in human SK-N-AS cells assessed as increase in caspase-3 activity at 0.4 uM after 24 hrs by CPP32 based colorimetric assay relative to control; assay type: functional
SK-N-AS [2] = assay: Cell cycle arrest in human SK-N-AS cells assessed as decrease in S phase population at 0.4 uM after 24 hrs by propidium iodide staining based flow cytometry relative to control; assay type: functional
SK-N-AS [3] = assay: Cell cycle arrest in human SK-N-AS cells assessed as decrease in S phase population at 0.4 uM after 48 hrs by propidium iodide staining based flow cytometry relative to control; assay type: functional
SK-N-AS [4] = assay: Antitumor activity against human SK-N-AS cells xenografted in specific-pathogen-free KSN athymic nude mouse assessed as decrease in tumor weight at 50 mg/kg/day administered ip for 2 weeks measured on day 21 relative to control; assay type: functional; design: scale not given: the % may be the effect or the level left
SK-N-AS [5] = assay: Cell cycle arrest in human SK-N-AS cells assessed as accumulation at sub-G1 phase at 0.4 uM after 72 hrs by propidium iodide staining based flow cytometry (reference value: 1.13 +/- 0.13%); assay type: functional
IMR-32 [6] = assay: Growth inhibition of human IMR32 cells at 0.1 uM after 72 hrs by MTT assay relative to control; assay type: functional; conditions: IMR-32, 72 h, read-out: GI
SK-N-AS [7] = assay: Cell cycle arrest in human SK-N-AS cells assessed as decrease in G2/M phase population at 0.4 uM after 72 hrs by propidium iodide staining based flow cytometry relative to control; assay type: functional
IMR-32 [8] = assay: Induction of apoptosis in human IMR32 cells assessed as decrease in Bcl-2 mRNA expression level at 0.4 to 4 uM after 8 hrs by real-time PCR method; assay type: functional, cell-based
SK-N-AS [9] = assay: Cell cycle arrest in human SK-N-AS cells assessed as accumulation at S phase at 0.4 uM after 72 hrs by propidium iodide staining based flow cytometry (reference value: 28.55 +/- 0.74%); assay type: functional
SK-N-AS [10] = assay: Growth inhibition of human SK-N-AS cells at 1 uM after 72 hrs by MTT assay relative to control; assay type: functional; conditions: read-out: GI
SK-N-AS [11] = assay: Induction of apoptosis in human SK-N-AS cells assessed as increase in caspase-3 activity at 4 uM after 24 hrs by CPP32 based colorimetric assay relative to control; assay type: functional
SK-N-AS [12] = assay: Growth inhibition of human SK-N-AS cells at 1 uM after 24 hrs by MTT assay relative to control; assay type: functional; conditions: read-out: GI
SK-N-AS [13] = assay: Cell cycle arrest in human SK-N-AS cells assessed as increase in sub-G1 phase population at 0.4 uM after 24 hrs by propidium iodide staining based flow cytometry relative to control; assay type: functional
SK-N-AS [14] = assay: Antitumor activity against human SK-N-AS cells xenografted in specific-pathogen-free KSN athymic nude mouse assessed as tumor growth inhibition at 50 mg/kg/day administered ip for 2 weeks measured on day 21 relative to control; assay type: functional; conditions: read-out: TGI
SK-N-AS [15] = assay: Cell cycle arrest in human SK-N-AS cells assessed as increase in G0/G1 cell population at 0.4 uM after 72 hrs by propidium iodide staining based flow cytometry relative to control; assay type: functional
SK-N-AS [16] = assay: Cell cycle arrest in human SK-N-AS cells assessed as accumulation at G0/G1 phase at 0.4 uM after 8 hrs by propidium iodide staining based flow cytometry (reference value: 46.14 +/- 3.63%); assay type: functional
SK-N-AS [17] = assay: Cell cycle arrest in human SK-N-AS cells assessed as accumulation at sub-G1 phase at 0.4 uM after 8 hrs by propidium iodide staining based flow cytometry (reference value: 1.13 +/- 0.13%); assay type: functional
SK-N-AS [18] = assay: Induction of apoptosis in human SK-N-AS cells assessed as decrease in Bcl-2 mRNA expression level at 4 uM after 24 hrs by real-time PCR method relative to control; assay type: functional; design: scale not given: the % may be the effect or the level left
SK-N-AS [19] = assay: Cell cycle arrest in human SK-N-AS cells assessed as accumulation at G2/M phase at 0.4 uM after 8 hrs by propidium iodide staining based flow cytometry (reference value: 25.31 +/- 2.89%); assay type: functional
SK-N-AS [20] = assay: Cell cycle arrest in human SK-N-AS cells assessed as accumulation at G2/M phase at 0.4 uM after 24 hrs by propidium iodide staining based flow cytometry (reference value: 25.31 +/- 2.89%); assay type: functional
SK-N-AS [21] = assay: Induction of apoptosis in human SK-N-AS cells assessed as increase in caspase-3 activity at 4 uM after 8 hrs by CPP32 based colorimetric assay relative to control; assay type: functional
SK-N-AS [22] = assay: Induction of apoptosis in human SK-N-AS cells assessed as increase in caspase-3 activity at 4 uM by CPP32 based colorimetric assay; assay type: functional, cell-based; conditions: TDE = time-dependent effect
SK-N-AS [23] = assay: Induction of apoptosis in human SK-N-AS cells assessed as decrease in Bcl-2 mRNA expression level after 24 hrs by real-time PCR method; assay type: functional, cell-based
SK-N-AS [24] = assay: Antitumor activity against human SK-N-AS cells xenografted in specific-pathogen-free KSN athymic nude mouse assessed as tumor growth inhibition at 12.5 mg/kg/day administered ip for 2 weeks measured on day 21 relative to control; assay type: functional; conditions: read-out: TGI
SK-N-AS [25] = assay: Cell cycle arrest in human SK-N-AS cells assessed as increase in G0/G1 cell population at 0.4 uM after 24 hrs by propidium iodide staining based flow cytometry relative to control; assay type: functional
SK-N-AS [26] = assay: Cell cycle arrest in human SK-N-AS cells assessed as accumulation at sub-G1 phase at 0.4 uM after 48 hrs by propidium iodide staining based flow cytometry (reference value: 1.13 +/- 0.13%); assay type: functional
IMR-32 [27] = assay: Induction of apoptosis in human IMR32 cells assessed as decrease in Bcl-2 mRNA expression level at 0.4 to 4 uM after 24 hrs by real-time PCR method relative to control; assay type: functional; design: scale not given: the % may be the effect or the level left
SK-N-AS [28] = assay: Cell cycle arrest in human SK-N-AS cells assessed as increase in G0/G1 cell population at 0.4 uM after 48 hrs by propidium iodide staining based flow cytometry relative to control; assay type: functional
SK-N-AS [29] = assay: Antitumor activity against human SK-N-AS cells xenografted in specific-pathogen-free KSN athymic nude mouse assessed as decrease in tumor weight at 12.5 mg/kg/day administered ip for 2 weeks measured on day 21 relative to control; assay type: functional; design: scale not given: the % may be the effect or the level left
SK-N-AS [30] = assay: Cell cycle arrest in human SK-N-AS cells assessed as increase in sub-G1 phase population at 4 uM after 24 hrs by propidium iodide staining based flow cytometry relative to control; assay type: functional
IMR-32 [31] = assay: Growth inhibition of human IMR32 cells at 0.4 uM after 72 hrs by MTT assay relative to control; assay type: functional; conditions: IMR-32, 72 h, read-out: GI
SK-N-AS [32] = assay: Cell cycle arrest in human SK-N-AS cells assessed as accumulation at S phase at 0.4 uM after 8 hrs by propidium iodide staining based flow cytometry (reference value: 28.55 +/- 0.74%); assay type: functional
IMR-32 [33] = assay: Reduction in N-myc mRNA expression level in human IMR32 cells at 0.4 to 4 uM after 8 hrs by real-time PCR method; assay type: functional, cell-based
SK-N-AS [34] = assay: Induction of apoptosis in human SK-N-AS cells assessed as decrease in Bcl-2 mRNA expression level at 0.4 uM after 24 hrs by real-time PCR method relative to control; assay type: functional; design: scale not given: the % may be the effect or the level left
IMR-32 [35] = assay: Growth inhibition of human IMR32 cells at 0.01 uM after 72 hrs by MTT assay relative to control; assay type: functional; conditions: IMR-32, 72 h, read-out: GI
SK-N-AS [36] = assay: Cell cycle arrest in human SK-N-AS cells assessed as decrease in G2/M phase population at 0.4 uM after 48 hrs by propidium iodide staining based flow cytometry relative to control; assay type: functional
SK-N-AS [37] = assay: Induction of apoptosis in human SK-N-AS cells assessed as increase in caspase-3 activity at 0.4 uM after 8 hrs by CPP32 based colorimetric assay relative to control; assay type: functional
SK-N-AS [38] = assay: Cell cycle arrest in human SK-N-AS cells at 4 uM by propidium iodide staining based flow cytometry; assay type: functional; conditions: TDE = time-dependent effect
SK-N-AS [39] = assay: Induction of apoptosis in human SK-N-AS cells assessed as decrease in Bcl-2 mRNA expression level after 8 hrs by real-time PCR method; assay type: functional, cell-based
Mus musculus = assay: Toxicity in specific-pathogen-free KSN athymic nude mouse xenografted with human SK-N-AS cells assessed as change in body weight at 12.5 to 50 mg/kg/day administered ip for 2 weeks measured on day 21; assay type: organism-based; conditions: in vivo, 336 h
IMR-32 [40] = assay: Growth inhibition of human IMR32 cells at 0.1 uM after 24 hrs by MTT assay relative to control; assay type: functional; conditions: IMR-32, 24 h, read-out: GI
IMR-32 [41] = assay: Reduction in N-myc mRNA expression level in human IMR32 cells at 4 uM after 24 hrs by real-time PCR method relative to control; assay type: functional; design: scale not given: the % may be the effect or the level left
IMR-32 [42] = assay: Induction of apoptosis in human IMR32 cells assessed as decrease in Bcl-2 mRNA expression level at 4 uM after 24 hrs by real-time PCR method relative to control; assay type: functional; design: scale not given: the % may be the effect or the level left
SK-N-AS [43] = assay: Cell cycle arrest in human SK-N-AS cells at 4 uM up to 72 hrs by propidium iodide staining based flow cytometry; assay type: functional
IMR-32 [44] = assay: Reduction in N-myc mRNA expression level in human IMR32 cells at 4 uM after 8 hrs by real-time PCR method; assay type: functional, cell-based
IMR-32 [45] = assay: Induction of apoptosis in human IMR32 cells assessed as decrease in Bcl-2 mRNA expression level at 4 uM after 8 hrs by real-time PCR method; assay type: functional, cell-based

## CCCCCCCCCCCCNc1ccc(O)cc1
SK-N-AS [1]
  fold change (FC): 5.3
SK-N-AS [2]
  fold change (FC): 0.73
SK-N-AS [3]
  fold change (FC): 0.89
SK-N-AS [4]
  Activity: 37%
SK-N-AS [5]
  Activity: 9.78%
IMR-32 [6]
  inhibition of growth at 0.1 µM: 92%
SK-N-AS [7]
  fold change (FC): 0.68
IMR-32 [8]
  Activity: inactive
SK-N-AS [9]
  Activity: 28.8%
SK-N-AS [10]
  inhibition of growth at 1 µM: 83 to 90%
SK-N-AS [11]
  fold change (FC): 12
SK-N-AS [12]
  inhibition of growth at 1 µM: 82%
SK-N-AS [13]
  fold change (FC): 3
SK-N-AS [14]
  inhibition in vivo at 50 mg/kg/day: 58%
SK-N-AS [15]
  fold change (FC): 1.17
SK-N-AS [16]
  Activity: 47.04%
SK-N-AS [17]
  Activity: 1.19%
SK-N-AS [18]
  Activity: 19%
SK-N-AS [19]
  Activity: 30.56%
SK-N-AS [20]
  Activity: 24.84%
SK-N-AS [21]
  fold change (FC): 3.6
SK-N-AS [22]
  Activity: Tde
SK-N-AS [23]
  Activity: Dose-dependent effect
SK-N-AS [24]
  inhibition in vivo at 12.5 mg/kg/day: 40%
SK-N-AS [25]
  fold change (FC): 1.18
SK-N-AS [26]
  Activity: 5.57%
IMR-32 [27]
  Activity: 63%
SK-N-AS [28]
  fold change (FC): 1.18
SK-N-AS [29]
  Activity: 33%
SK-N-AS [30]
  fold change (FC): 23
IMR-32 [31]
  inhibition of growth at 0.4 µM: 100%
SK-N-AS [32]
  Activity: 22.4%
IMR-32 [33]
  Activity: inactive
SK-N-AS [34]
  Activity: 35%
IMR-32 [35]
  inhibition of growth at 0.01 µM: 15%
SK-N-AS [36]
  fold change (FC): 0.79
SK-N-AS [37]
  fold change (FC): 1.6
SK-N-AS [38]
  Activity: Tde
SK-N-AS [39]
  Activity: inactive
Mus musculus
  Activity: Non-Toxic
IMR-32 [40]
  inhibition of growth at 0.1 µM: 78%
IMR-32 [41]
  Activity: 52%

## CC1=C(/C=C/C(C)=C/C=C/C(C)=C/C(=O)Nc2ccc(O)cc2)C(C)(C)CCC1 [FENRETINIDE]
IMR-32 [6]
  inhibition of growth at 0.1 µM: 17%
SK-N-AS [10]
  inhibition of growth at 1 µM: 10%
SK-N-AS [11]
  fold change (FC): 4.7
SK-N-AS [12]
  inhibition of growth at 1 µM: 2%
SK-N-AS [18]
  Activity: 62%
SK-N-AS [22]
  Activity: Tde
IMR-32 [42]
  Activity: 69%
SK-N-AS [43]
  Activity: Active
IMR-32 [44]
  Activity: inactive
SK-N-AS [30]
  fold change (FC): 5
IMR-32 [31]
  inhibition of growth at 0.4 µM: 27%
IMR-32 [35]
  inhibition of growth at 0.01 µM: 15%
IMR-32 [45]
  Activity: inactive
IMR-32 [40]
  inhibition of growth at 0.1 µM: 4%
IMR-32 [41]
  Activity: 27%

## CCCCCCCCCCNc1ccc(O)cc1
SK-N-AS [10]
  inhibition of growth at 1 µM: 60%
SK-N-AS [12]
  inhibition of growth at 1 µM: 44%
